Read-outs that look alike come from different tables or passages of the source.
Tests used:
[1] = system: CCRF-CEM; assay: MTS cytotoxicity assay, 72 h; format: cell-based; details: Homo sapiens, CCRF-CEM, 72 h, read-out: IC50 CCRF-CEM, MTS assay, 3-day incubation, mean ± SD of 3 experiments
[2] = system: CEM-DNR; assay: MTS cytotoxicity assay, 72 h; format: cell-based; details: Homo sapiens, read-out: IC50 CEM-DNR
[3] = system: K562; assay: MTS cytotoxicity assay, 72 h; format: cell-based; details: Homo sapiens, K562, 72 h, read-out: IC50 K562
[4] = system: K562-TAX; assay: MTS cytotoxicity assay, 72 h; format: cell-based; details: read-out: IC50 K562-TAX
[5] = system: HCT116; assay: MTS cytotoxicity assay, 72 h; format: cell-based; details: Homo sapiens, HCT-116, 72 h, read-out: IC50 HCT116
[6] = system: HCT116p53–/–; assay: MTS cytotoxicity assay, 72 h; format: cell-based; details: read-out: IC50 HCT116p53–/–
[7] = system: U2OS; assay: MTS cytotoxicity assay, 72 h; format: cell-based, human
[8] = system: MRC-5; assay: MTS cytotoxicity assay, 72 h; format: cell-based; details: Homo sapiens, MRC5, 72 h, read-out: IC50 MRC-5
[9] = system: BJ; assay: MTS cytotoxicity assay, 72 h; format: cell-based; details: Homo sapiens, read-out: IC50 BJ
[10] = system: HUVEC; assay: MTS cytotoxicity assay, 72 h; format: cell-based; details: Homo sapiens, 3-day incubation, mean ± SD
[11] = system: microtubules in U2OS cells; assay: Immunofluorescence of microtubule organization; format: cell-based, human; details: 10 μM, 15 h
Method: DMSO at appropriate dilution served as control.
Immunofluorescence microscopy on formaldehyde-fixed, Triton X-100 extracted cells (F/Tx) was performed as previously described. Extraction and fixation steps were carried out in a microtubule stabilizing buffer consisting of 0.1 M KMes, 2 mM EGTA, 2 mM MgCl2, 4% polyethylene glycol 6000, pH 6.9. Cells were fixed for 30 min in 3% formaldehyde before extraction for 4 min with 0.5% Triton X-100 at 37 °C. Mouse monoclonal antibody TU-01 (IgG1) directed to α-tubulin , in the form of hybridoma spent culture medium was diluted 1:10. The DyLight 549-conjugated antimouse antibody (Jackson Immunoresearch Laboratories, West Grove, PA, USA) was diluted 1:500. Samples were mounted in MOWIOL 4–88 (Calbiochem, San Diego, CA, USA) supplemented with 4,6-diamidino-2-phenylindole (DAPI; Sigma-Aldrich, St. Louis, MO, USA) and examined with an Olympus AX-70 Provis microscope (Olympus, Hamburg, Germany) equipped with a 60×/1.0 water objective.

[12] = system: panel of cell lines
[13] = system: CCRF-CEM lymphoblasts; assay: FACS analysis of cell cycle, apoptosis, mitosis and polyploidy; details: for Mitosis: phospho-Histone (Ser10); for Apoptosis: sub-G0/G1 DNA content, % of positive cells
[14] = system: panel of cell lines; assay: cells; details: read-out: IC50 values, cancer cell lines
[15] = Homo sapiens, U2OS, 72 h, read-out: IC50 U2OS, MTS assay, 3-day incubation, mean ± SD

Compound | IC50 [1] [µM] | IC50 [2] [µM] | IC50 [3] [µM] | IC50 [4] [µM] | IC50 [5] [µM] | IC50 [6] [µM] | IC50 [7, 15] [µM] | IC50 [8] [µM] | IC50 [9] [µM] | IC50 [10] [µM] | RI (resistance index) [12] | SI (selectivity index) [12] | G0/G1 ([13]; 1×IC50, 24 h) [%] | G2/M ([13]; 1×IC50, 24 h) [%] | Polyploid cells ([13]; 1×IC50, 24 h) [%] | S ([13]; 1×IC50, 24 h) [%] | Mitosis ([13]; 1×IC50, 24 h) [%] | Apoptosis ([13]; 1×IC50, 24 h) [%] | G0/G1 ([13]; 5×IC50, 24 h) [%] | G2/M ([13]; 5×IC50, 24 h) [%] | further results
COc1cc2c(c(OC)c1OC)-c1ccc(OC)c(=O)cc1[C@@H](n1cc(CCCC3=C4C(C)=CC(C)=[N+]4[B-](F)(F)n4c(C)cc(C)c43)[n+](C)n1)CC2 [CB7] | 0.84 ± 0.058 | 1.34 ± 0.229 | 0.77 ± 0.0224 | 0.62 ± 0.084 | 1.51 ± 0.33 | 1.43 ± 0.162 | < 2 | > 50 | > 50 | 1.4 ± 0.104 | 1.22 | >38.40 | 26.66 | 45.89 | 21.60 | 27.45 | 19.77 | 13.02 | 6.62 | 88.84 | IC50 ([7]; read-out: IC50 U2OS, MTS assay, 3-day incubation, mean ± SD): 1.96 ± 0.096 µM; effect on microtubules (in words) [11]: microtubule remnants were detectable; Polyploid cells ([13]; 5×IC50, 24 h): 23.77%; S ([13]; 5×IC50, 24 h): 4.54%; Mitosis ([13]; 5×IC50, 24 h): 68.32%; Apoptosis ([13]; 5×IC50, 24 h): 14.67%
COc1cc2c(c(OC)c1OC)-c1ccc(N(C)CCCCC3=C4C(C)=CC(C)=[N+]4[B-](F)(F)n4c(C)cc(C)c43)c(=O)cc1[C@@H](NC(C)=O)CC2 [CB11] | 2.5 ± 0.567 | 5.49 ± 0.935 | 1.85 ± 0.204 | 5.18 ± 0.198 | 4.93 ± 0.729 | 5.52 ± 0.762 | 4.62 ± 1.23 | > 50 | > 50 | 5.52 ± 0.29 | 2.45 | >12.87 | 35.98 | 30.38 | 13.64 | 33.64 | 4.83 | 5.26 | 10.48 | 79.29 | IC50 [14]: 2.5 to 9 µM; Polyploid cells ([13]; 5×IC50, 24 h): 24.88%; S ([13]; 5×IC50, 24 h): 10.23%; Mitosis ([13]; 5×IC50, 24 h): 59.86%; Apoptosis ([13]; 5×IC50, 24 h): 16.42%
COc1cc2c(c(OC)c1OC)-c1ccc(N(C)C(=O)CCC3=C4C(C)=CC(C)=[N+]4[B-](F)(F)n4c(C)cc(C)c43)c(=O)cc1[C@@H](NC(C)=O)CC2 [CB12] | 5.54 ± 0.475 | 36 ± 2.04 | 4.25 ± 0.89 | 8.07 ± 0.706 | 8.09 ± 0.268 | 8.35 ± 0.549 | 9.12 ± 0.174 | > 50 | > 50 | 8.24 ± 0.77 | 4.50 | >7.07 | 32.27 | 26.62 | 18.91 | 41.12 | 9.86 | 4.12 | 21.05 | 53.56 | IC50 [14]: 2.5 to 9 µM; Polyploid cells ([13]; 5×IC50, 24 h): 23.39%; S ([13]; 5×IC50, 24 h): 25.39%; Mitosis ([13]; 5×IC50, 24 h): 23.11%; Apoptosis ([13]; 5×IC50, 24 h): 10.47%

From PMC12261228 (ACS Pharmacology & Translational Science, 2025)
